Measurements as given in patent US4079135A, “Morpholine derivatives as antidepressants” (Imperial Chemical Industries Limited, priority 1973, dated 1978).
Where a name gives a salt, the structure may show the parent alone.

Columns and labels:
Oral LD50 in mice = settings: mouse, in vivo, dosed orally
Procedure: The compound of the invention 2-(4H-2,3-dihydro-1,4-benzoxazin-3-one-4-ylmethyl)morpholine hydrogen oxalate has an LD50 in mice of 800 mg./kg. when dosed orally.

[1] = tested on: reserpine-induced hypothermia in mice; assay: RHL test: reversal of reserpine-induced hypothermia in mice; assay type: in vivo; settings: 4 hours, over a large number of tests, reserpine 2 mg./kg. s.c. 17 h before
Procedure: This effect is the one primarily used in the art for establishing the relative antidepressant activity in a series of chemically-related compounds. […] Pharmacol., 1962, 14, 509. The RHL test is carried out as follows:-
Mice are kept in a constant temperature room maintained at 21° ± 1° C. Each member of groups of 4 mice is given reserpine (2 mg. of base per kg. bodyweight, given subcutaneously as the acetate). Seventeen hours later the oesophageal temperature (TO) of each mouse is recorded by means of an orally-inserted probe coupled to an electric thermometer which is calibrated in degree Centigrade and which can be read to 0.1° C. Immediately after the temperature measurement the mice are dosed orally with the test compound, or with imipramine, each mouse in a group of 4 being given the same substance, and the oesophageal temperatures are again recorded after 4 hours (T4). The compound under test is dosed at serial dilutions, e.g. 100, 30, 3, 1, 0.3, 0.1 mg./kg. Imipramine is used as the control. […] At 1 mg./kg. it produces an average rise of 1.7° C. A test compound which at a certain dose level gives a rise in temperature equal to or greater than that given by 1 mg./kg. of imipramine, dosed to a different set of mice on the same day, is adjudged "active" at that dose.

SMILES	LD50 (Oral LD50 in mice) [mg/kg]	average rise in the temperature of a reserpinised mouse ([1]; 1 mg./kg. oral) [°C]	average rise in the temperature of a reserpinised mouse ([1]; 3 mg./kg. oral) [°C]
O=C1COc2ccccc2N1CC1CNCCO1 (stereo not drawn) [2-(4H-2,3-dihydro-1,4-benzoxazin-3-one-4-ylmethyl)morpholine hydrogen oxalate]	800		
CN(C)CCCN1c2ccccc2CCc2ccccc21 [imipramine]		1.7	3
